Laboratory results taken from patent US9486447B2, “Compositions and methods for controlling neuronal excitation” (The General Hospital Corporation, priority 2011, dated 2016).

What was measured:
hTRPA1 C633S = biological target: T1, hTRPA1 C633S (Homo sapiens, UniProt O75762, C633S); experiment: Calcium imaging of transfected HEK cells; type: cell-based; details: compared with WT channels
T1 construct: expressed in transfected cells; host or cells: HEK293
Description: (§1) Reactive electrophilic compounds activate TRPA1 channels through the covalent modification of specific cysteine residues including those at amino acid positions 621, 633, and 856. Point mutations in these cysteines can reduce hTRPA1 activation by specific ligands without disrupting overall channel function^39,40. To determine if these cysteine residues are also important for TRPA1 activation by optovin, intracellular calcium levels were measured in cells transfected with wildtype and mutant hTRPA1 channels. […] Rhodanine and hydantoin are photoelectric moieties used in photovoltaic panels and other photochemical applications^41,42. Nevertheless, photosensitization alone is insufficient to grant optovin its unusual biological activity. For example, optovin is phenotypically unique compared to 171 additional rhodanine-containing compounds contained in the screening library (data not shown).
(§2) HEK293 cells were plated onto poly-lysine-coated glass bottom culture dishes (MatTek Corp), and grown in Dulbecco's Modified Eagle's Medium (DMEM, Sigma) supplemented with 10% fetal bovine serum and 100 U/mL penicillin and 100 μg/ml streptomycin. After 24 hrs, cells were transfected, according to manufacturer's instructions, in Opti-MEM media, using 4 μl lipofectamine 2000 (Invitrogen), 0.5 ug EGFP in pcDNA, and 0.3 μg TrpA1 DNA per dish. Media was replaced after 2 hours, and cells were cultured for an additional 17 hours. As previously described for neurons, HEK cells were washed with assay buffer (HBSS Gibco 14025, supplemented with 9 mM HEPES, 11 mM D-glucose, 0.1% fatty-acid free BSA, pH 7.3) and incubated for 1 h with 2 μM Fura2-AM (Invitrogen) with 0.2% pluronic (Invitrogen) in assay buffer in the dark at room temperature. The cells were then washed with assay buffer and allowed to equilibrate at room temperature for 30 min prior to imaging. At the start of the imaging session for each dish, cells were replaced with DMSO-assay buffer. After 50 seconds of imaging, assay buffer was aspirated by hand, and replaced with 100 μM optovin dissolved in the DMSO-assay buffer solution. […]

[1] = biological target: T2, hTRPA1 C633S/C856S double mutant (Homo sapiens, UniProt O75762, C633S/C856S); experiment: Calcium imaging of transfected HEK cells; type: cell-based; details: compared with WT channels
T2 construct: expressed in transfected cells; host or cells: HEK293
Description: as §1, §2

hTRPA1 C621S = biological target: T3, hTRPA1 C621S (Homo sapiens, UniProt O75762, C621S); experiment: Calcium imaging of transfected HEK cells; type: cell-based; details: compared with WT channels
T3 construct: expressed in transfected cells; host or cells: HEK293
Description: as §1, §2

hTRPA1 = biological target: T4, hTRPA1 (Homo sapiens, UniProt O75762); experiment: Calcium imaging of transfected HEK cells; type: cell-based
T4 construct: expressed in transfected cells; host or cells: HEK293 / HEK293T
Description: To determine if TRPA1 is sufficient for optovin activity, current density amplitudes were analyzed via whole-cell patch clamping in HEK293T cells transfected with the human TrpA1 (hTrpA1) gene.
HEK293 cells were plated onto poly-lysine-coated glass bottom culture dishes (MatTek Corp), and grown in Dulbecco's Modified Eagle's Medium (DMEM, Sigma) supplemented with 10% fetal bovine serum and 100 U/mL penicillin and 100 μg/ml streptomycin. After 24 hrs, cells were transfected, according to manufacturer's instructions, in Opti-MEM media, using 4 μl lipofectamine 2000 (Invitrogen), 0.5 ug EGFP in pcDNA, and 0.3 μg TrpA1 DNA per dish. Media was replaced after 2 hours, and cells were cultured for an additional 17 hours. As previously described for neurons, HEK cells were washed with assay buffer (HBSS Gibco 14025, supplemented with 9 mM HEPES, 11 mM D-glucose, 0.1% fatty-acid free BSA, pH 7.3) and incubated for 1 h with 2 μM Fura2-AM (Invitrogen) with 0.2% pluronic (Invitrogen) in assay buffer in the dark at room temperature. The cells were then washed with assay buffer and allowed to equilibrate at room temperature for 30 min prior to imaging. At the start of the imaging session for each dish, cells were replaced with DMSO-assay buffer. After 50 seconds of imaging, assay buffer was aspirated by hand, and replaced with 100 μM optovin dissolved in the DMSO-assay buffer solution. Each dish of HEK cells was imaged for a total of 3 minutes.
Cells were transfected with the hTRPA1^44, TRPA1 C621S^44, hTRPA1 C633S^45 and hTRPA1 C633S, C856S^45 plasmids as described.

NET = biological target: T5, NET (Homo sapiens, UniProt P23975); experiment: NIMH PDSP binding assay; details: primary screening, mean of N = 4 determinations
T5 construct: NIMH PDSP
Source text: (§3) To determine if optovin's mechanism of action could be predicted via behavioral profiling^30,32, optovin's behavioral profile was compared to the behavioral profiles of 700 annotated neuroactive compounds tested in triplicate. These compounds include ligands targeting the adrenergic, serotonergic, histaminergic, dopaminergic, cholinergic and glutamatergic pathways. […] To gain insight into optovin's mechanism of action, optovin and two active optovin analogs were profiled using the National Institutes of Mental Health Psychoactive Drug Screening Program (NIMH PDSP) to determine their activities against a panel of human and rodent CNS receptors, channels and transporters.
(§4) Activity determinations were generously provided by the National Institute of Mental Health's Psychoactive Drug Screening Program, Contract # HHSN-271-2008-00025-C(NIMH PDSP). Complete assay details are found on-line at: http://pdsp.med.unc.edu/UNC-CH %20Protocol %20Book.pdf

Sigma 2 = Sigma 2 (Rattus norvegicus, UniProt Q5U3Y7); experiment: NIMH PDSP binding assay; details: primary screening, mean of N = 4 determinations
Source text: as §3, §4

5-HT6 = 5-HT6 (Homo sapiens, UniProt P50406); experiment: NIMH PDSP binding assay; details: primary screening, mean of N = 4 determinations
Source text: as §3, §4

5-ht1e = 5-ht1e (Homo sapiens, UniProt P28566); experiment: NIMH PDSP binding assay; details: primary screening, mean of N = 4 determinations
Source text: as §3, §4

M3 = biological target: T6, M3 (Homo sapiens, UniProt P20309); experiment: NIMH PDSP binding assay; details: primary screening, mean of N = 4 determinations
T6 construct: NIMH PDSP
Source text: as §3, §4

Alpha2C = Alpha2C (Homo sapiens, UniProt P18825); experiment: NIMH PDSP binding assay; details: primary screening, mean of N = 4 determinations
Source text: as §3, §4

Alpha1B = Alpha1B (Homo sapiens, UniProt P35368); experiment: NIMH PDSP binding assay; details: primary screening, mean of N = 4 determinations
Source text: as §3, §4

M4 = biological target: T7, M4 (Homo sapiens, UniProt P08173); experiment: NIMH PDSP binding assay; details: primary screening, mean of N = 4 determinations
T7 construct: NIMH PDSP
Source text: as §3, §4

KOR = biological target: T8, KOR (Homo sapiens, UniProt P41145); experiment: NIMH PDSP binding assay; details: primary screening, mean of N = 4 determinations
T8 construct: NIMH PDSP
Source text: as §3, §4

adult zebrafish = experiment: 405 nm laser illumination of adult and spinalized zebrafish; type: in vivo
Description: Optovin's capacity to function in intact adult animals will impact its suitability for future clinical and research applications. Thus, the effects of 405 nm laser illumination on optovin-treated adult zebrafish were analyzed. […] To determine if fin contraction was voluntary or involuntary, the experiment was repeated using spinalized preparations. Optical control of dorsal fin contraction was preserved in spinalized animals treated with optovin (data not shown). Furthermore, carefully controlled laser illumination of specific regions along the body of spinalized zebrafish produced specific dorsal, ventral, and lateral tail movements reminiscent of those used by intact fish during swimming (data not shown). Because zebrafish TRPA1 is primarily expressed in sensory neurons, these contractions and swimming behaviors likely occur via activation of spinal reflex arcs.
Adult zebrafish (0.5-1.5 years) were briefly anesthetized in ice water and quickly decapitated with a sharp razor blade. Spinalized preparations were incubated in optovin (50 μM) for 1-2 min prior to testing with laser light stimuli (405 nm, 400 μW mm−2).

T4 sequence (O75762 whole entry): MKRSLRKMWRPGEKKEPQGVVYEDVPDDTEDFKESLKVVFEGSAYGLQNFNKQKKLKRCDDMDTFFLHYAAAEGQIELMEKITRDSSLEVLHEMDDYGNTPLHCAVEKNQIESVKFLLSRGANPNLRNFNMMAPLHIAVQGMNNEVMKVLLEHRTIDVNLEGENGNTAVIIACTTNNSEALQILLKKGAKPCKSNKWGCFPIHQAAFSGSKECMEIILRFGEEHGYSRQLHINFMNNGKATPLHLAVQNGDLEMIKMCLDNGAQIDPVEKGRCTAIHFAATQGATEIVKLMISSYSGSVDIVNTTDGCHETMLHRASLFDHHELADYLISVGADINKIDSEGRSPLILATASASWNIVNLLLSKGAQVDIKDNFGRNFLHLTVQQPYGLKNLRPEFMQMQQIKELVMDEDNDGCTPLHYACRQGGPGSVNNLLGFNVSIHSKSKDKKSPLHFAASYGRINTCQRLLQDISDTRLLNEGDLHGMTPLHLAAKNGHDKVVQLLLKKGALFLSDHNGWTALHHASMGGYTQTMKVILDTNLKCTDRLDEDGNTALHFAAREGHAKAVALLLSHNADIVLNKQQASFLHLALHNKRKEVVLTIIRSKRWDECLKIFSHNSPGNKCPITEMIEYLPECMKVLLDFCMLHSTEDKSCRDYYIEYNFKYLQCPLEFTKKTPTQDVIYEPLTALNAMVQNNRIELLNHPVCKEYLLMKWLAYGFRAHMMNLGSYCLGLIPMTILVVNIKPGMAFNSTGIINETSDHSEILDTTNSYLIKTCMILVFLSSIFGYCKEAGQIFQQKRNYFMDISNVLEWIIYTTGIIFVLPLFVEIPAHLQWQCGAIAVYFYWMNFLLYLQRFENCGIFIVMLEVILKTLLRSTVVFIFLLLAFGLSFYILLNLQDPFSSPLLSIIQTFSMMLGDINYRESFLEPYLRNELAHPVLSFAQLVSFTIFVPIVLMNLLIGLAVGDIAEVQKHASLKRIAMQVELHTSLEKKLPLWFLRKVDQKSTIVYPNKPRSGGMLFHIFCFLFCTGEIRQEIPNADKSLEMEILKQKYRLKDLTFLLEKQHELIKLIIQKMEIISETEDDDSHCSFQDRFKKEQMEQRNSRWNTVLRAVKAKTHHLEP
Sequence of Alpha1B (P35368 whole entry): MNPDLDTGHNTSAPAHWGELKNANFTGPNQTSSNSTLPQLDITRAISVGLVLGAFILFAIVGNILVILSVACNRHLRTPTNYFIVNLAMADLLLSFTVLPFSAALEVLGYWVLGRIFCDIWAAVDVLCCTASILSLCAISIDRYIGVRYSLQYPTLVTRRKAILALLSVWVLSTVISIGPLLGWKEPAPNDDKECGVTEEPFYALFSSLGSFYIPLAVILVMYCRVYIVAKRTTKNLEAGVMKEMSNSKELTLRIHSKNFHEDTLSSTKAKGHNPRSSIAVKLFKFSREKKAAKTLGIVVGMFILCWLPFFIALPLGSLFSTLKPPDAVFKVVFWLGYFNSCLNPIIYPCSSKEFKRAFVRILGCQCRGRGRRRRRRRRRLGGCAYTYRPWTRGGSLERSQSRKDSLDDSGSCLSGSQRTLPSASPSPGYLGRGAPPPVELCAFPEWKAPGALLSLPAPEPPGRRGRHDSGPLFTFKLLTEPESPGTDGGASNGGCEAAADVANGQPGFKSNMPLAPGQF
Sequence of Sigma 2 (Q5U3Y7 whole entry): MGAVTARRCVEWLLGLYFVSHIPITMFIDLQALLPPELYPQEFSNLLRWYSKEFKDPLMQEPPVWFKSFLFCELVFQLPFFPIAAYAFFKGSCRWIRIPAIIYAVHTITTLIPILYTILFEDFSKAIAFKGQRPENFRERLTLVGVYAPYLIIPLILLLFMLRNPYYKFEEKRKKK
T5 sequence (P23975 whole entry): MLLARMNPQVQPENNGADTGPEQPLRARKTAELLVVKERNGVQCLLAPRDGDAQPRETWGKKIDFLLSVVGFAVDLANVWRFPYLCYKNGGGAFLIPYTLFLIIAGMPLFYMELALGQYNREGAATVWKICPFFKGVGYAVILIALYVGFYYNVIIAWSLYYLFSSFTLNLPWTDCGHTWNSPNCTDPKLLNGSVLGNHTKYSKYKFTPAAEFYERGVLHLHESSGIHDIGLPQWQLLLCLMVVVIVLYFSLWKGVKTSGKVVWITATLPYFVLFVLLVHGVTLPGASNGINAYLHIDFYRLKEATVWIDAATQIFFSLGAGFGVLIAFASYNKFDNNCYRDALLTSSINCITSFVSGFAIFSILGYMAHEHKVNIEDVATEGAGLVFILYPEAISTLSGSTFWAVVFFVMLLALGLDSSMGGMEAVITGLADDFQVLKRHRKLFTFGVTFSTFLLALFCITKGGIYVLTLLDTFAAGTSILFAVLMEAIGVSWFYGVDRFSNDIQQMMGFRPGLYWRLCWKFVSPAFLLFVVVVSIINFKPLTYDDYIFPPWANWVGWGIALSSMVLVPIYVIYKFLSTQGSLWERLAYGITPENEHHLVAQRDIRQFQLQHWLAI
T6 sequence (P20309 whole entry): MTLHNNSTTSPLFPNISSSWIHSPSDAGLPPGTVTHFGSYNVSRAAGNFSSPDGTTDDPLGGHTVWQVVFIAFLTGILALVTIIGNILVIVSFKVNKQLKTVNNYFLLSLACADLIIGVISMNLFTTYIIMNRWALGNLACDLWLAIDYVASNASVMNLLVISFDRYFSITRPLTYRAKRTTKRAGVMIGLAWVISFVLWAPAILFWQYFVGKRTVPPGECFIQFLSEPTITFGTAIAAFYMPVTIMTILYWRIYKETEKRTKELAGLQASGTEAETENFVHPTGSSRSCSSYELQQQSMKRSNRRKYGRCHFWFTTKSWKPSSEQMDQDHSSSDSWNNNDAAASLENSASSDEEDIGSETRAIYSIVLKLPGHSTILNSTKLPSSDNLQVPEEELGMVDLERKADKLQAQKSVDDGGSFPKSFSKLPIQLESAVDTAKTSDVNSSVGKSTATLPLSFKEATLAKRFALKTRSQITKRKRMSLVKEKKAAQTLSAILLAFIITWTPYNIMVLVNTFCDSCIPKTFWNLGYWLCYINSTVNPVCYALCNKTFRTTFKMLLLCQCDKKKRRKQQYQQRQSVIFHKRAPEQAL
Sequence of Alpha2C (P18825 whole entry): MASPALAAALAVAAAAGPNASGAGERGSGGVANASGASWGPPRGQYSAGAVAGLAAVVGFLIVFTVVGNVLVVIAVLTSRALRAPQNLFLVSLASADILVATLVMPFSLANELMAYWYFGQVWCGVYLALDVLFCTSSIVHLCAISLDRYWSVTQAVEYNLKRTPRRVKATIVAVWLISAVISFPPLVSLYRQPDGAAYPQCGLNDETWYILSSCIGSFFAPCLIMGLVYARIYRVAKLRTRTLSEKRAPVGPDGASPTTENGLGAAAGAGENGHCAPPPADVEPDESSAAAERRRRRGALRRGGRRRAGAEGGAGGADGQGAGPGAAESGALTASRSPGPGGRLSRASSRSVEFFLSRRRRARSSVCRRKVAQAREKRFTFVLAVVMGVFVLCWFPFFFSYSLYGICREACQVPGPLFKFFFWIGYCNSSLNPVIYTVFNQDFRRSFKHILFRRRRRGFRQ
Sequence of 5-ht1e (P28566 whole entry, species assumed): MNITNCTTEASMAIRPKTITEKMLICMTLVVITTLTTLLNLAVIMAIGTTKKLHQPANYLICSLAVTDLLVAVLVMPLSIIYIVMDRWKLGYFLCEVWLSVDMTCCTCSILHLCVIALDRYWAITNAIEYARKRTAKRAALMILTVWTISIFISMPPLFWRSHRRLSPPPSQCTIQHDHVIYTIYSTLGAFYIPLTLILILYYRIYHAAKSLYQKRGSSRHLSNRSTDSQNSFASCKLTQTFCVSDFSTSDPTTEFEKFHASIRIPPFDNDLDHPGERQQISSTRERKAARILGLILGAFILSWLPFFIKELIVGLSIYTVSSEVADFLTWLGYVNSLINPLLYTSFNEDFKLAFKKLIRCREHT
T8 sequence (P41145 whole entry): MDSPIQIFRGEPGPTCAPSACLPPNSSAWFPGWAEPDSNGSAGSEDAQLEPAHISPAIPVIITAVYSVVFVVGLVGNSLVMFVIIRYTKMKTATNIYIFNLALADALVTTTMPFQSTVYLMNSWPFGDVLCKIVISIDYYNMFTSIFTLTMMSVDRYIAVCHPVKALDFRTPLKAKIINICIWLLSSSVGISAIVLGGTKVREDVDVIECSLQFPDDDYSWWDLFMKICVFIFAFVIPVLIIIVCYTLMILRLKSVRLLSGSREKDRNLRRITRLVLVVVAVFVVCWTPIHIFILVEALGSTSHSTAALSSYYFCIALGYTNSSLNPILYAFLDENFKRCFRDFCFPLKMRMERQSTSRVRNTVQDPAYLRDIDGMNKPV
T3 sequence (O75762 whole entry C621S): as the sequence (O75762 whole entry) above, with C621S counted along it
T7 sequence (P08173 whole entry): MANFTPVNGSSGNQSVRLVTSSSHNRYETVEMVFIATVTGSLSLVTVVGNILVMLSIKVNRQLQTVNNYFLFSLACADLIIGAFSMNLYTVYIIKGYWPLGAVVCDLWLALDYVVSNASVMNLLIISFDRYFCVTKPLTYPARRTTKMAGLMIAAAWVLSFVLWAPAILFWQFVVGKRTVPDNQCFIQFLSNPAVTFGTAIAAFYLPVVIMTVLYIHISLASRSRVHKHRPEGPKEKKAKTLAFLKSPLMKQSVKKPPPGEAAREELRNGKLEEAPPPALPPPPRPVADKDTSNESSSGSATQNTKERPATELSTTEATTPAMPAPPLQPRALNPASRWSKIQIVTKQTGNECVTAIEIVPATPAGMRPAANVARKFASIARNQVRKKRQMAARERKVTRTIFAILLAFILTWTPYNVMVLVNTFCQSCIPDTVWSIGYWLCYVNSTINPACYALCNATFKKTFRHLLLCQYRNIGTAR
T1 sequence (O75762 whole entry C633S): as the sequence (O75762 whole entry) above, with C633S counted along it
T2 sequence (O75762 whole entry C633S/C856S): as the sequence (O75762 whole entry) above, with C633S, C856S counted along it

Cc1cc(/C=C2/SC(=S)NC2=O)c(C)n1-c1cccnc1 [optovin]
response to light and optovin (intracellular calcium) (hTRPA1 C633S): significantly decreased response
response to light and optovin (intracellular calcium) [1]: significantly decreased response
response to light and optovin (intracellular calcium) (hTRPA1 C621S): significantly decreased response
change in fluorescence in response to light and optovin (hTRPA1; WT channels): strong change in fluorescence
effect of catalase and superoxide dismutase on optovin's effects (hTRPA1; hTRPA1 transfected HEK cells): Neither catalase nor superoxide dismutase reduce optovin's effects
calcium levels (hTRPA1; optovin and light, HEK cells transfected with hTrpA1): elevated calcium levels were observed
Avg % inhibition (NET) (NET): −1.3%
Avg % inhibition (Sigma 2) (Sigma 2): 16.0%
Avg % inhibition (5-HT6) (5-HT6): −16.5%
Avg % inhibition (5-ht1e) (5-ht1e): −21.5%
Avg % inhibition (M3) (M3): 9.1%
Avg % inhibition (Alpha2C) (Alpha2C): 3.3%
Avg % inhibition (Alpha1B) (Alpha1B): 7.2%
Avg % inhibition (M4) (M4): 3.5%
Avg % inhibition (KOR) (KOR): 10.9%
dorsal fin response to 405 nm laser illumination (adult zebrafish; intact adult zebrafish): rapid and reversible contraction of the fin
optical control of dorsal fin contraction (adult zebrafish; spinalized animals): preserved
